These results are taken from patent US8420605B2, “Hydrogel compositions” (The University of Strathclyde, priority 2005, dated 2013).

Ends that are not written are not given here. * marks the point of attachment. Fmoc = O=C(OCC1c2ccccc2-c2ccccc21)*; Cbz = O=C(OCc1ccccc1)*

Data set [1] can be described thus: Hydrogel formation from Fmoc-amino acid/di-peptide combinations (tripeptides). Type of data set: physicochemical. The following applies: Fmoc-AA + di-peptide combination. The text has this:
The inventors thought it would be sensible to retain the two consecutive phenylalanine residues in the peptide, but introduce a third amino acid immediately after the Fmoc cap and before the Phe-Phe. […] In addition, the inventors also made the tripeptide: Fmoc-Leu-Leu-Leu.

Data set [2] in a line: Preparation of self-assembled peptide hydrogels by pH adjustment (gel formation). In kind it is physicochemical. The following applies: for pH: pH at which the gel formed at the indicated concentrations (Table 3). The protocol:
Fmoc peptides (from BACHEM Ltd) were weighed out into 4 ml glass vials. 2 ml purified water was added followed by sonication for 30-60 seconds. 0.5M NaOH solution was added in 50 μl droplets until a clear solution was formed. 0.1M HCl was added to the solution by stepwise addition of 50 μl followed by mixing using a vortex. pH values were estimated by transferring a spatula tip of hydrogel onto universal indicator paper.
Self-assembled scaffolds were prepared by first suspending the Fmoc-dipeptide in purified water. Upon increase of the pH by addition of concentrated NaOH (thus de-protonating the carboxylic acid group) to a value of >8, a clear solution was obtained. To this solution, concentrated hydrochloric acid was added drop wise until the pH of the solution became 7, at which point a clear, self-supporting gel was formed.
Table 3 below identifies various peptide derivatives (incorporating an aromatic stacking ligand) and mixtures thereof that formed gels at a pH of 6-8 at the indicated concentrations: […]

Assay in data set [3]: as above
In kind it is physicochemical.

For data set [4] the following is noted: Xu et al., J. Am. Chem. Soc. 2003, 125, 13680; cited from earlier work.

With Fmoc-Leu-Leu-Leu, in data set [1], the “Gel formed?” value is recorded as “✓”.

Regarding Fmoc-Ala-Phe-Phe, the “Gel formed?” value in data set [1] was “✓”.

For the substance Cbz-Leu-Leu-Leu-OH, the “Gel?” value in data set [2] (Component 1 5-20 mM/L, pH 7) is on record as “✓”. This substance displayed a pH in data set [2] of 7. Regarding Fmoc-Gly-Gly-OH, the pH in data set [2] was 3-5. For the same substance, in data set [3] (Component 1 10-40 mM/L, pH 3-5), the “Gel?” value was “✓”. Besides, the “pH value for gelation” value in data set [4] is reported as 3. With Fmoc-Phe-Phe-Phe-OH, the “Gel?” value in data set [2] (Component 1 5-20 mM/L, pH 7) is “✓”. Further, in data set [2], the pH was 7. Moreover, in data set [1], the “Gel formed?” value is on record as “✓”. As to Fmoc-Gly-D-Ala, the “pH value for gelation” value in data set [4] is 5. The substance Fmoc-Leu-Gly-OH registered a pH in data set [2] of 2. Further, in data set [3] (Component 1 20 mM/L, pH 2), the “Gel?” value is “✓”. As to Fmoc-D-Ala-D-Ala, in data set [4], the “pH value for gelation” value is listed as 3. As to Fmoc-Phe-Gly-OH, the pH in data set [2] is recorded as 3-5. In data set [3] (Component 1 20 mM/L, pH 3-5), the “Gel?” value is reported as “✓”. Fmoc-L-Ala-L-Ala: in data set [4], the “pH value for gelation” value is given as 3.

Take Fmoc-Gly-L-SER: the “pH value for gelation” value in data set [4] was 5. For Fmoc-Leu-Phe-Phe, the “Gel formed?” value in data set [1] is on record as “✓”. With Fmoc-Ala-Ala-OH, in data set [2], the pH was found to be 3. The “Gel?” value in data set [3] (Component 1 40 mM/L, pH 3) is listed as “✓”. Consider Fmoc-Val-Phe-Phe, for which, in data set [1], the “Gel formed?” value is on record as “✓”.

Take Cbz-Phe-Phe-OH: in data set [2] (Component 1 10-30 mM/L, pH 6-8), the “Gel?” value is recorded as “✓”. In addition, in data set [2], the pH was 6-8.
